From ChEMBL document CHEMBL4002623, “Synthesis and in vitro activity of dicationic indolyl diphenyl ethers as novel potent antibiotic agents against drug-resistant bacteria” (Bioorg Med Chem Lett, 2017)
≈ marks a conversion by molar mass, not a printed value.

Legend:
Staphylococcus aureus [1] = assay: Antibacterial activity against methicillin-resistant Staphylococcus aureus 09-13 by agar dilution method; format: functional
Staphylococcus aureus [2] = assay: Antibacterial activity against methicillin-sensitive Staphylococcus aureus 15 by agar dilution method; format: functional
[3] = test system: Staphylococcus epidermidis; assay: Antibacterial activity against methicillin-sensitive Staphylococcus epidermidis 09-9 by agar dilution method; format: functional
Pseudomonas aeruginosa [4] = assay: Antibacterial activity against Pseudomonas aeruginosa ATCC 27853 by agar dilution method; format: functional
Escherichia coli [5] = assay: Antibacterial activity against extended-spectrum beta-lactamase-negative Escherichia coli 09-20 by agar dilution method; format: functional
Staphylococcus aureus [6] = assay: Potency index, ratio of levofloxacin MIC to test compound MIC for methicillin-resistant Staphylococcus aureus 09-13; format: functional
Enterococcus faecalis [7] = assay: Antibacterial activity against vancomycin-sensitive Enterococcus faecalis 09-8 by agar dilution method; format: functional
[8] = Cytotoxicity against HEK293T cells after 48 hrs by MTS assay; format: cell-based, HEK-293T; conditions: human
Klebsiella pneumoniae [9] = assay: Antibacterial activity against extended-spectrum beta-lactamase-negative Klebsiella pneumoniae 7 by agar dilution method; format: functional
Pseudomonas aeruginosa [10] = assay: Antibacterial activity against Pseudomonas aeruginosa 09-14 by agar dilution method; format: functional
Pseudomonas aeruginosa [11] = assay: Antibacterial activity against Pseudomonas aeruginosa PAO1 by agar dilution method; format: functional
[12] = test system: Staphylococcus epidermidis; assay: Antibacterial activity against methicillin-sensitive Staphylococcus epidermidis ATCC 12228 by agar dilution method; format: functional
Providencia rettgeri = assay: Antibacterial activity against Providencia rettgeri ATCC 31052 by agar dilution method; format: functional
Enterococcus faecium [13] = assay: Antibacterial activity against vancomycin-resistant Enterococcus faecium 05-8 by agar dilution method; format: functional
Salmonella typhi = assay: Antibacterial activity against Salmonella typhi H901 by agar dilution method; format: functional, Salmonella enterica subsp. enterica serovar Typhi; conditions: Salmonella enterica
Staphylococcus aureus [14] = assay: Antibacterial activity against methicillin-sensitive Staphylococcus aureus 09-6 by agar dilution method; format: functional
Enterococcus faecalis [15] = assay: Antibacterial activity against vancomycin-resistant Enterococcus faecalis 09-9 by agar dilution method; format: functional
Enterococcus faecalis [16] = assay: Antibacterial activity against vancomycin-resistant Enterococcus faecalis ATCC 51299 by agar dilution method; format: functional
Klebsiella aerogenes = assay: Antibacterial activity against Enterobacter aerogenes 45102 by agar dilution method; format: functional
[17] = test system: Staphylococcus epidermidis; assay: Potency index, ratio of levofloxacin MIC to test compound MIC for methicillin-resistant Staphylococcus epidermidis 09-3; format: functional
Staphylococcus aureus [18] = assay: Antibacterial activity against methicillin-sensitive Staphylococcus aureus ATCC 29213 by agar dilution method; format: functional
Escherichia coli [19] = assay: Antibacterial activity against extended-spectrum beta-lactamase-negative Escherichia coli 1515 by agar dilution method; format: functional
Staphylococcus aureus [20] = assay: Antibacterial activity against methicillin-resistant Staphylococcus aureus ATCC 33591 by agar dilution method; format: functional
Proteus vulgaris = assay: Antibacterial activity against Proteus vulgaris ATCC 29905 by agar dilution method; format: functional
Escherichia coli [21] = assay: Antibacterial activity against extended-spectrum beta-lactamase-negative Escherichia coli ATCC 25922 by agar dilution method; format: functional
Citrobacter freundii = assay: Antibacterial activity against Citrobacter freundii ATCC 43864 by agar dilution method; format: functional
Enterococcus faecium [22] = assay: Antibacterial activity against vancomycin-resistant Enterococcus faecium ATCC 700221 by agar dilution method; format: functional
Proteus mirabilis = assay: Antibacterial activity against Proteus mirabilis 09-1 by agar dilution method; format: functional
Escherichia coli [23] = assay: Antibacterial activity against extended-spectrum beta-lactamase-positive Escherichia coli 09-1 by agar dilution method; format: functional
Enterobacter cloacae = assay: Antibacterial activity against Enterobacter cloacae 45301 by agar dilution method; format: functional
Klebsiella pneumoniae [24] = assay: Antibacterial activity against extended-spectrum beta-lactamase-positive Klebsiella pneumoniae 09-25 by agar dilution method; format: functional
Enterococcus faecium [25] = assay: Potency index, ratio of levofloxacin MIC to test compound MIC for vancomycin-resistant Enterococcus faecium ATCC 700221; format: functional
Klebsiella pneumoniae [26] = assay: Antibacterial activity against extended-spectrum beta-lactamase-positive Klebsiella pneumoniae ATCC 700603 by agar dilution method; format: functional
Klebsiella pneumoniae [27] = assay: Antibacterial activity against Klebsiella pneumoniae ATCC BAA-2146 expressing NDM-1 by agar dilution method; format: functional
Enterococcus faecium [28] = assay: Antibacterial activity against vancomycin-sensitive Enterococcus faecium 09-10 by agar dilution method; format: functional
Enterococcus faecalis [29] = assay: Potency index, ratio of levofloxacin MIC to test compound MIC for vancomycin-resistant Enterococcus faecalis 09-9; format: functional
[30] = test system: Staphylococcus epidermidis; assay: Antibacterial activity against methicillin-resistant Staphylococcus epidermidis 09-3 by agar dilution method; format: functional
Enterococcus faecalis [31] = assay: Antibacterial activity against vancomycin-sensitive Enterococcus faecalis ATCC 29212 by agar dilution method; format: functional
[32] = test system: Acinetobacter calcoaceticus; assay: Antibacterial activity against Acinetobacter calcoaceticus ATCC 19606 by agar dilution method; format: functional
Morganella morganii = assay: Antibacterial activity against Morganella morganii ATCC 25830 by agar dilution method; format: functional
Serratia marcescens = assay: Antibacterial activity against Serratia marcescens 41002 by agar dilution method; format: functional
Klebsiella pneumoniae [33] = assay: Antibacterial activity against extended-spectrum beta-lactamase-negative Klebsiella pneumoniae 09-8 by agar dilution method; format: functional
Staphylococcus aureus [34] = assay: Potency index, ratio of vancomycin MIC to test compound MIC for methicillin-resistant Staphylococcus aureus 09-13; format: functional
Enterococcus faecalis [35] = assay: Potency index, ratio of vancomycin MIC to test compound MIC for vancomycin-resistant Enterococcus faecalis 09-9; format: functional
[36] = test system: Staphylococcus epidermidis; assay: Potency index, ratio of vancomycin MIC to test compound MIC for methicillin-resistant Staphylococcus epidermidis 09-3; format: functional
Enterococcus faecium [37] = assay: Potency index, ratio of vancomycin MIC to test compound MIC for vancomycin-resistant Enterococcus faecium ATCC 700221; format: functional

N=C(c1ccc2cc(-c3ccc(Oc4ccc(-c5cc6ccc(C(=N)N7CCC7)cc6[nH]5)cc4)cc3)[nH]c2c1)N1CCC1
MIC (Staphylococcus aureus [1]): 0.5 µg/mL (≈ 0.885 µM)
MIC (Staphylococcus aureus [2]): 0.5 µg/mL (≈ 0.885 µM)
MIC [3]: 0.5 µg/mL (≈ 0.885 µM)
MIC (Pseudomonas aeruginosa [4]): 128 µg/mL (≈ 227 µM)
MIC (Escherichia coli [5]): 64 µg/mL (≈ 113 µM)
Ratio (Staphylococcus aureus [6]): 4 - 8
MIC (Enterococcus faecalis [7]): 2 µg/mL (≈ 3.54 µM)
CC50 at 48 h [8]: 21.6 µg/mL (≈ 38.3 µM)
MIC (Klebsiella pneumoniae [9]): 64 µg/mL (≈ 113 µM)
MIC (Pseudomonas aeruginosa [10]): > 128 µg/mL
MIC (Pseudomonas aeruginosa [11]): > 128 µg/mL
MIC [12]: 0.125 µg/mL (≈ 0.221 µM)
MIC (Providencia rettgeri): > 128 µg/mL
MIC (Enterococcus faecium [13]): 2 µg/mL (≈ 3.54 µM)
MIC (Salmonella typhi): 32 µg/mL (≈ 56.7 µM)
MIC (Staphylococcus aureus [14]): 2 µg/mL (≈ 3.54 µM)
MIC (Enterococcus faecalis [15]): 8 µg/mL (≈ 14.2 µM)
MIC (Enterococcus faecalis [16]): 2 µg/mL (≈ 3.54 µM)
MIC (Klebsiella aerogenes): 64 µg/mL (≈ 113 µM)
Ratio [17]: 4 - 8
MIC (Staphylococcus aureus [18]): 2 µg/mL (≈ 3.54 µM)
MIC (Escherichia coli [19]): 64 µg/mL (≈ 113 µM)
MIC (Staphylococcus aureus [20]): 0.5 µg/mL (≈ 0.885 µM)
MIC (Proteus vulgaris): 128 µg/mL (≈ 227 µM)
MIC (Escherichia coli [21]): 16 µg/mL (≈ 28.3 µM)
MIC (Citrobacter freundii): 64 µg/mL (≈ 113 µM)
MIC (Enterococcus faecium [22]): 2 µg/mL (≈ 3.54 µM)
MIC (Proteus mirabilis): 128 µg/mL (≈ 227 µM)
MIC (Escherichia coli [23]): 64 µg/mL (≈ 113 µM)
MIC (Enterobacter cloacae): > 128 µg/mL
MIC (Klebsiella pneumoniae [24]): 64 to 128 µg/mL (≈ 113 to 227 µM)
Ratio (Enterococcus faecium [25]): 16 - 64
MIC (Klebsiella pneumoniae [26]): 64 µg/mL (≈ 113 µM)
MIC (Klebsiella pneumoniae [27]): 64 to 128 µg/mL (≈ 113 to 227 µM)
MIC (Enterococcus faecium [28]): 8 µg/mL (≈ 14.2 µM)
Ratio (Enterococcus faecalis [29]): 16 - 64
MIC [30]: 0.5 µg/mL (≈ 0.885 µM)
MIC (Enterococcus faecalis [31]): 2 µg/mL (≈ 3.54 µM)
MIC [32]: > 128 µg/mL
MIC (Morganella morganii): 8 µg/mL (≈ 14.2 µM)
MIC (Serratia marcescens): 128 µg/mL (≈ 227 µM)
MIC (Klebsiella pneumoniae [33]): 64 µg/mL (≈ 113 µM)

CNC(=N)c1ccc2cc(-c3ccc(Oc4ccc(-c5cc6ccc(C(=N)NC)cc6[nH]5)cc4)cc3)[nH]c2c1
MIC (Staphylococcus aureus [1]): 0.5 µg/mL (≈ 0.975 µM)
MIC (Staphylococcus aureus [2]): 1 µg/mL (≈ 1.95 µM)
MIC [3]: 1 µg/mL (≈ 1.95 µM)
MIC (Pseudomonas aeruginosa [4]): > 128 µg/mL
MIC (Escherichia coli [5]): > 128 µg/mL
Ratio (Staphylococcus aureus [6]): 16 - 32
MIC (Enterococcus faecalis [7]): 1 µg/mL (≈ 1.95 µM)
CC50 at 48 h [8]: 12.2 µg/mL (≈ 23.8 µM)
MIC (Klebsiella pneumoniae [9]): > 128 µg/mL
MIC (Pseudomonas aeruginosa [10]): > 128 µg/mL
MIC (Pseudomonas aeruginosa [11]): > 128 µg/mL
MIC [12]: 0.25 µg/mL (≈ 0.488 µM)
MIC (Providencia rettgeri): > 128 µg/mL
MIC (Enterococcus faecium [13]): 2 µg/mL (≈ 3.9 µM)
MIC (Salmonella typhi): 128 µg/mL (≈ 250 µM)
MIC (Staphylococcus aureus [14]): 1 µg/mL (≈ 1.95 µM)
Ratio (Staphylococcus aureus [34]): 4 - 8
MIC (Enterococcus faecalis [15]): 1 µg/mL (≈ 1.95 µM)
Ratio (Enterococcus faecalis [35]): 128 - 256
MIC (Enterococcus faecalis [16]): 1 µg/mL (≈ 1.95 µM)
MIC (Klebsiella aerogenes): > 128 µg/mL
Ratio [17]: 16 - 32
MIC (Staphylococcus aureus [18]): 1 µg/mL (≈ 1.95 µM)
MIC (Escherichia coli [19]): 128 µg/mL (≈ 250 µM)
MIC (Staphylococcus aureus [20]): 1 µg/mL (≈ 1.95 µM)
MIC (Proteus vulgaris): > 128 µg/mL
MIC (Escherichia coli [21]): 128 µg/mL (≈ 250 µM)
MIC (Citrobacter freundii): > 128 µg/mL
MIC (Enterococcus faecium [22]): 0.5 µg/mL (≈ 0.975 µM)
MIC (Proteus mirabilis): > 128 µg/mL
Ratio [36]: 4 - 8
MIC (Escherichia coli [23]): 128 µg/mL (≈ 250 µM)
MIC (Enterobacter cloacae): > 128 µg/mL
MIC (Klebsiella pneumoniae [24]): > 128 µg/mL
MIC (Klebsiella pneumoniae [26]): > 128 µg/mL
MIC (Klebsiella pneumoniae [27]): > 128 µg/mL
MIC (Enterococcus faecium [28]): 1 µg/mL (≈ 1.95 µM)
Ratio (Enterococcus faecium [37]): 128 - 256
MIC [30]: 0.5 µg/mL (≈ 0.975 µM)
MIC (Enterococcus faecalis [31]): 1 µg/mL (≈ 1.95 µM)
MIC [32]: > 128 µg/mL
MIC (Morganella morganii): 128 µg/mL (≈ 250 µM)
MIC (Serratia marcescens): > 128 µg/mL
MIC (Klebsiella pneumoniae [33]): > 128 µg/mL
